According to US20030099600A1, “Metalloproteinase inhibitors for the treatment of respiratory diseases” (priority 2000, published 2003):

Experiments:
[1] = oral route; cited from earlier work
TIMP-1 [2] = assay: Human study in COPD subjects: TIMP-1 levels (ELISA); type: in vivo; settings: for TIMP-1 % of control: capsules 50, 100, 200 mg ascending, 3 days each, 4-day wash out
Procedure: (§1) This was an open-label, ascending dose, cross-over study. Suitable subjects with chronic obstructive pulmonary disease (COPD) had their respiratory function assessed at baseline and provided sputum and blood for MMP and doxycycline levels. They then received 50 mg, 100 mg and 200 mg of doxycycline capsules for a period of 3 days in ascending order. At the end of each treatment period a further assessment of respiratory function was performed, and a sputum and blood sample was analysed for MMP, TIMP-1 and doxycycline levels. There was a 4-day wash out period between each treatment period of the study. The MMPs and TIMPs released were measured using commercial ELISAs as detailed above for the lung tissue study.

TIMP-1 [3] = assay: Lung tissue study: TIMP-1 released by human lung tissue in vitro (ELISA); type: cell-based; settings: 24 hours; for TIMP-1 % of IL-1: 100 U/ml IL-1 stimulated; for TIMP-1 % of control: unstimulated fragments
Procedure: (§2) This study was done to assess the effects of doxycycline on the release of matrix metalloproteinases by human lung tissue in vitro.
(§3) On the following day, 2-3 fragments (total weight 50 mg) were placed in 0.8 ml of culture buffer and 0.1 ml of doxycycline (to give a final concentration of 10^−4-10^−8M) or a buffer control was added.
(§4) After one hours incubation at 37° C., the fragments were treated with either 0.1 ml of either a buffer control (unstimulated fragments) or 1000 U/ml interleukin-1 (final concentration of 100 U/ml IL-1). The fragments were then incubated for 24 hours and the supernatant recovered; the tissue was weighed and stored at −70° C.
(§5) The MMPs and TIMPs released into the supematant were measured using commercial ELISAs (Amersham); values were expressed as ng of MMP/TIMP per mg of lung tissue.

MMP-9 [4] = assay: Human study in COPD subjects: MMP-9 levels (ELISA); type: in vivo; settings: for MMP-9 % of control: capsules 50, 100, 200 mg ascending, 3 days each, 4-day wash out
Procedure: as §1

MMP-9 [5] = assay: Lung tissue study: MMP-9 released by human lung tissue in vitro (ELISA); type: cell-based; settings: 24 hours; for MMP-9 % of IL-1: 100 U/ml IL-1 stimulated; for MMP-9 % of control: unstimulated fragments
Procedure: as §2, §3, §4, §5

[6] = route of administration that avoids first-pass metabolism; cited from earlier work
MMP-1 = assay: Lung tissue study: MMP-1 released by human lung tissue in vitro (ELISA); type: cell-based; settings: 24 hours; for MMP-1 % of IL-1: 100 U/ml IL-1 stimulated; for MMP-1 % of control: unstimulated fragments
Procedure: as §2, §3, §4, §5
MMP-1 levels are analysed by Elisa plates (Code No. RPN2610) from Amersham Pharmacia Biotech UK Limited, Amersham Place, Little Chalfont, BUCKS HP7 9NA.
(§6) The Elisa is run as per manufacturer's instructions.
This Elisa is specific for total MMP-1; recognising pro MMP-1, active MMP-1 and MMP-1/TIMP-1 complex.

MMP-2 = assay: Lung tissue study: MMP-2 released by human lung tissue in vitro (ELISA); type: cell-based; settings: 24 hours; for MMP-2 % of IL-1: 100 U/ml IL-1 stimulated; for MMP-2 % of control: unstimulated fragments
Procedure: as §2, §3, §4, §5
MMP-2 levels are analysed by Elisa plates (Code No. RPN2617) from Amersham Pharmecia Biotech UK Limited, Amersham Place, Little Chalfont, BUCKS HP7 9NA.
as §6
This Elisa is specific for proMMP-2; recognising free proMMP-2 and MMP-2 complexed to TIMP-2, but not the active form of MMP-2. No cross-reactivity with MMP-1, 3, 7, 8, 9 and MT1-MMP.

[7] = Mean of study days 4, 8, 11, 15, 18, COPD subjects

Structure (SMILES): C[C@H]1c2cccc(O)c2C(=O)C2=C(O)[C@]3(O)C(=O)C(C(N)=O)=C(O)[C@@H](N(C)C)[C@@H]3[C@@H](O)[C@@H]21 [doxycycline]
- protein binding [1]: very highly protein-bound
- TIMP-1 % of control (TIMP-1 [2]; Day of Study 4, COPD subjects): 116.24%
- TIMP-1 % of control (TIMP-1 [2]; Day of Study 15, COPD subjects): 974.24%
- TIMP-1 % of control, Mean (TIMP-1 [2]; [7]): 978.67%
- increase in TIMP-1 (TIMP-1 [2]; human patient study): 10 fold
- upregulation of TIMP-1 in COPD sputum, % of untreated levels (TIMP-1 [2]; repeated dosing at 100 mg once daily): about 1000%
- TIMP-1 % of IL-1 (TIMP-1 [3]; 10^-4 M): 75.47%
- TIMP-1 % of control (TIMP-1 [3]; 10^-4 M): 44.49%
- TIMP-1 % of IL-1 (TIMP-1 [3]; 10^-6 M): 508.92%
- TIMP-1 % of control (TIMP-1 [3]; 10^-6 M): 182.40%
- TIMP-1 % of IL-1 (TIMP-1 [3]; 10^-8 M): 461.92%
- TIMP-1 % of control (TIMP-1 [3]; 10^-8 M): 172.02%
- MMP-9 % of control (MMP-9 [4]; Day of Study 4, COPD subjects): 39.43%
- MMP-9 % of control (MMP-9 [4]; Day of Study 8, COPD subjects): 12.85%
- MMP-9 % of control (MMP-9 [4]; Day of Study 11, COPD subjects): 29.17%
- MMP-9 % of control (MMP-9 [4]; Day of Study 15, COPD subjects): 22.41%
- MMP-9 % of control (MMP-9 [4]; Day of Study 18, COPD subjects): 29.03%
- MMP-9 % of control, Mean (MMP-9 [4]; [7]): 26.58%
- reduction in MMP-9 activity (MMP-9 [4]; human patient study): 73%
- MMP-9 % of IL-1 (MMP-9 [5]; 10^-4 M): 51.04%
- MMP-9 % of control (MMP-9 [5]; 10^-4 M): 39.36%
- MMP-9 % of IL-1 (MMP-9 [5]; 10^-6 M): 99.29%
- MMP-9 % of control (MMP-9 [5]; 10^-6 M): 116.84%
- MMP-9 % of IL-1 (MMP-9 [5]; 10^-8 M): 127.04%
- MMP-9 % of control (MMP-9 [5]; 10^-8 M): 113.57%
- lung concentration relative to the level in plasma [6]: up to 10 times
- MMP-1 % of IL-1 (MMP-1; 10^-4 M): 14.75%
- MMP-1 % of control (MMP-1; 10^-4 M): 24.05%
- MMP-1 % of IL-1 (MMP-1; 10^-6 M): 61.47%
- MMP-1 % of control (MMP-1; 10^-6 M): 84.10%
- MMP-1 % of IL-1 (MMP-1; 10^-8 M): 51.87%
- MMP-1 % of control (MMP-1; 10^-8 M): 76.50%
- MMP-2 % of IL-1 (MMP-2; 10^-4 M): 49.23%
- MMP-2 % of control (MMP-2; 10^-4 M): 34.34%
- MMP-2 % of IL-1 (MMP-2; 10^-6 M): 86.86%
- MMP-2 % of control (MMP-2; 10^-6 M): 219.33%
- MMP-2 % of IL-1 (MMP-2; 10^-8 M): 95.75%
- MMP-2 % of control (MMP-2; 10^-8 M): 101.47%
